Experiments:
Type in all cases: in vivo, human
subjects with T2DM [1] = experiment: Ambulatory blood pressure monitoring; conditions: for Decrease in diastolic blood pressure at nighttime, Day 13, compared to placebo (metformin alone) / Decrease in systolic blood pressure at nighttime, Day 13, compared to placebo (metformin alone): stated as magnitude of decrease
Procedure: The ambulatory blood pressure was monitored for […] during inpatient days (beginning Day 1 at 08.00, Day 2 at 08.00 and Day 13 at 08.00). The unit was programmed to take blood pressure readings every 10 min from 08.00 to 10.00, every 20 min from 10.00 to 22.00, and every 30 min from 22.00 to 08.00 the following morning.
(§1) Descriptive statistics were used to summarize baseline demographics, safety data, and pharmacokinetic parameters. Geometric mean and % CVb (between-subject coefficient of variation) were calculated for all pharmacokinetic parameters except tmax. Comparisons of placebo with each active dose of RE were assessed in terms of change from baseline in fasting plasma lactate acid using repeated measures analysis of covariance model. The model included terms for baseline measurement, visit, treatment and visit-by-treatment interaction. The same model was applied to change from baseline in weighted means of day-time, night-time and 0–24 h of blood pressures. Within group treatment comparison was performed using mixed model on log transformed Cmax and AUC (0-last).

subjects with T2DM [2] = experiment: Adverse event monitoring, RE co-administered with metformin for 13 days; conditions: for Any AE / Tolerability of co-administration with metformin: 13 days; for Tolerability of co-administration with metformin: RE 500 or 750 mg BID + metformin >=2000 mg/day
From the text: The study was comprised of three phases; run-in, randomization, and treatment. […] In treatment phase the patients were considered in two cohorts. […] The adverse events monitoring included recording of any adverse event (AE) and serious adverse event (SAE) reported or observed during the entire study and follow-up period. All the subjects were counseled to inform study staff of any AEs that occurred during the study. Any abnormal laboratory findings (e.g., clinical chemistry, hematology, and urinalysis) or other abnormal assessments (e.g., ECGs, vital signs, physical examination) that were judged by the investigator as clinically significant were recorded as AEs or SAE.

[3] = Plasma pharmacokinetics of remogliflozin etabonate and its metabolites during metformin treatment
Procedure: as §1, with “PK analysis was conducted by […] (Chapel Hill, NC, USA), under the direction of Clinical Pharmacokinetics/Modelling and Simulation, GSK using the non-compartmental analysis Model 200 (for extra vascular administration) of WinNonlin Professional Edition version 4.1 (Pharsight Corporation, Mountain View, CA). […] Descriptive” for “Descriptive”, “0-24” for “0–24”

[4] = 24 h, RE 500 mg BID + metformin, N = 14
[5] = 24 h, RE 750 mg BID + metformin, N = 14
[6] = Daytime (10 am to 8 pm), RE 500 mg BID + metformin
[7] = Daytime (10 am to 8 pm), RE 750 mg BID + metformin
[8] = Nighttime (midnight to 6 am), RE 500 mg BID + metformin
[9] = Nighttime (midnight to 6 am), RE 750 mg BID + metformin
[10] = RE 500 mg BID + metformin, N = 16
[11] = RE 750 mg BID + metformin, N = 17

CCOC(=O)OC[C@H]1O[C@@H](Oc2nn(C(C)C)c(C)c2Cc2ccc(OC(C)C)cc2)[C@H](O)[C@@H](O)[C@@H]1O [RE, remogliflozin etabonate]
Ambulatory diastolic BP, adjusted mean change from baseline to Day 13 vs. placebo (subjects with T2DM [1]; [4]): −2.0; p = 0.256 mmHg
Ambulatory systolic BP, adjusted mean change from baseline to Day 13 vs. placebo (subjects with T2DM [1]; [4]): −2.8; p = 0.303 mmHg
Ambulatory diastolic BP, adjusted mean change from baseline to Day 13 vs. placebo (subjects with T2DM [1]; [5]): −3.3; p = 0.062 mmHg
Ambulatory systolic BP, adjusted mean change from baseline to Day 13 vs. placebo (subjects with T2DM [1]; [5]): −4.0; p = 0.131 mmHg
Ambulatory diastolic BP, adjusted mean change from baseline to Day 13 vs. placebo (subjects with T2DM [1]; [6]): −1.8; p = 0.461 mmHg
Ambulatory systolic BP, adjusted mean change from baseline to Day 13 vs. placebo (subjects with T2DM [1]; [6]): −3.4; p = 0.291 mmHg
Ambulatory diastolic BP, adjusted mean change from baseline to Day 13 vs. placebo (subjects with T2DM [1]; [7]): −1.3; p = 0.586 mmHg
Ambulatory systolic BP, adjusted mean change from baseline to Day 13 vs. placebo (subjects with T2DM [1]; [7]): −2.4; p = 0.441 mmHg
Ambulatory diastolic BP, adjusted mean change from baseline to Day 13 vs. placebo (subjects with T2DM [1]; [8]): −6.5; p = 0.006 mmHg
Ambulatory systolic BP, adjusted mean change from baseline to Day 13 vs. placebo (subjects with T2DM [1]; [8]): −8.4; p = 0.020 mmHg
Ambulatory diastolic BP, adjusted mean change from baseline to Day 13 vs. placebo (subjects with T2DM [1]; [9]): −4.8; p = 0.043 mmHg
Ambulatory systolic BP, adjusted mean change from baseline to Day 13 vs. placebo (subjects with T2DM [1]; [9]): −7.1; p = 0.047 mmHg
Decrease in diastolic blood pressure at nighttime, Day 13, compared to placebo (metformin alone) (subjects with T2DM [1]; RE 500 mg BID + metformin): 6.5 mmHg
Decrease in systolic blood pressure at nighttime, Day 13, compared to placebo (metformin alone) (subjects with T2DM [1]; RE 500 mg BID + metformin): 8.4 mmHg
Decrease in diastolic blood pressure at nighttime, Day 13, compared to placebo (metformin alone) (subjects with T2DM [1]; RE 750 mg BID + metformin): 4.8 mmHg
Decrease in systolic blood pressure at nighttime, Day 13, compared to placebo (metformin alone) (subjects with T2DM [1]; RE 750 mg BID + metformin): 7.1 mmHg
Any AE (subjects with T2DM [2]; RE 500 mg BID + metformin >=2000 mg/day, N = 16): 6 (38%) N(%)
Dizziness (subjects with T2DM [2]; [10]): 1 (6%) N(%)
Nausea (subjects with T2DM [2]; [10]): 1 (6%) N(%)
Thirst (subjects with T2DM [2]; [10]): 0 N(%)
Post-therapy AEs (subjects with T2DM [2]; RE 750 mg + metformin group): no post-therapy AEs
Subjects with hypoglycemic laboratory events (subjects with T2DM [2]; RE 750 mg + metformin group, moderate, resolved with sweets): one
Any AE (subjects with T2DM [2]; RE 750 mg BID + metformin >=2000 mg/day, N = 17): 4 (24%) N(%)
Diarrhoea (subjects with T2DM [2]; [11]): 1 (6%) N(%)
Dizziness (subjects with T2DM [2]; [11]): 1 (6%) N(%)
Dyslipidemia (subjects with T2DM [2]; [11]): 0 N(%)
Nausea (subjects with T2DM [2]; [11]): 1 (6%) N(%)
Supraventricular tachycardia (subjects with T2DM [2]; [11]): 0 N(%)
Urinary tract infection (subjects with T2DM [2]; [11]): 0 N(%)
Vomiting (subjects with T2DM [2]; [11]): 1 (6%) N(%)
Tolerability of co-administration with metformin (subjects with T2DM [2]): generally well tolerated
Tolerability of co-administration with metformin (subjects with T2DM [2]; listed as remogliflozin etabonate): well tolerated
AUC(0-last) accumulation ratio Day 13 versus Day 1, point estimate (90% CI) ([3]; RE 500 mg + Metformin): 0.99 (0.857–1.15)
AUC(0-last) accumulation ratio Day 13 versus Day 1, point estimate (90% CI) ([3]; RE 750 mg + Metformin): 1.02 (0.861–1.21)
AUC(0-t) ([3]; human, plasma, oral, 500 mg, Day 1, RE 500 mg BID + metformin, N = 16, read-out: AUC (0-last), geometric mean (%CVb)): 70.9 ng·h/mL
Cmax ([3]; human, plasma, oral, 500 mg, Day 1, after RE 500 mg BID + metformin, N = 16, read-out: Cmax, geometric mean (%CVb)): 64.8 ng/mL
